According to patent publication US7183068B2, “Methods of manufacturing glucose measuring assemblies with hydrogels” (Animas Technologies, LLC, priority 1999, dated 2007):
Values joined by “and” are separate entries in the source; they are usually repeats but may differ in a detail not shown here. Equal entries are not always repeated.

Assays:
[1] = Adsorption of undecylenic acid from hydrogel into gel retaining layer, GC; type: physicochemical; conditions: Two Weeks at Room Temperature
Description: (§1) Collection assemblies incorporating sodium undecylenate-comprising hydrogels were assayed for retention of the biocide within the hydrogel. The presence of undecylenic acid in the hydrogel and assembly components was determined by gas chromatography (GC) using a Hewlett Packard (Avondale, Pa.) 5890 gas chromatogram equipped with an HP 3396A integrator. The hydrogels and collection assembly components were cut using a ¾ inch punch to generate the samples to assay. Each sample “disk” was added to 4 mL of 1M HCl, and the undecylenic acid was extracted for 2 hours while shaking on an orbital shaker at 150 rpm, followed by 10 minutes at 100 rpm. The sample disks were then extracted twice with 4 mL of ethyl acetate. Samples 1 μL in volume were injected into the GC and the results compared to that generated for a standard solution of undecylenic acid.

[2] = Loss of undecylenic acid from hydrogel, gel control, GC; type: physicochemical; conditions: Two Weeks at Room Temperature
Description: as §1

Aspergillus niger = assay: Modified USP antimicrobial preservative effectiveness test of hydrogels; type: cell-based; conditions: Aspergillus niger inoculation, 28 day period
Description: (§2) Nipastat® biocide and undecylenic acid were compared with respect to the effects their presence (within the ionically conductive medium) had on microbial growth over time. A modified USP antimicrobial preservative effectiveness test was performed, using Aspergillus niger, Candida albicans, Eschericia coli, Pseudomonas aeruginosa and Staphylococcus aureus. Separate portions of the two hydrogels were inoculated with a low concentration of one of the listed microorganisms, and recovery of the microorganism was determined over a period of 28 days. For this assay, the microorganisms were cultured, harvested and diluted to yield working suspensions of 2.0×10^3 to 2.0×10^4 colony forming units (CFUs)/sample.

Staphylococcus aureus = assay: as above; type: cell-based; conditions: Staphylococcus aureus inoculation, 28 day period
Description: as §2

Pseudomonas aeruginosa = assay: as above; type: cell-based; conditions: Pseudomonas aeruginosa inoculation, 28 day period
Description: as §2

Candida albicans = assay: as above; type: cell-based; conditions: Candida albicans inoculation, 28 day period
Description: as §2

Eschericia coli = assay: as above; type: cell-based; conditions: Eschericia coli inoculation, 28 day period
Description: as §2

[3] = Response of sensing electrode to glucose, acetaminophen and uric acid in presence of biocide (percent recovery); conditions: preconditioned 10 minutes at 0.77V, 50 minutes at 0.42V
From the text: Two biocides were compared with respect to the effects their presence (within the ionically conductive medium) had on signal generation at the sensing element under three conditions: in the presence of glucose, glucose plus acetaminophen, and glucose plus uric acid. The Nipastat® biocide was shown in the examples above to form a permeation selective barrier at the reactive face of the sensor element. The second biocide tested, undecylenic acid, was not expected to polymerize under the iontophoretic conditions used during the functionality test as described in the previous example. The measured responses of the sensor elements are presented in Table 7, normalized to a control “background” response for each sensor element. As described in Example 5, the sensor electrodes were assembled with the collection insert layer containing the appropriate ionically conductive material (control, Nipastat® biocide, or undecylenic acid biocide) to form the autosensor assemblies. The autosensor assemblies were preconditioned for 10 minutes at 0.77V, followed by 50 minutes at 0.42V, after which the glucose solution (200 μM) plus or minus the interferant species was deposited onto the ionically conductive material, and the response of the sensor element measured from this time forward.

[4] = Adsorption of undecylenic acid from hydrogel into mask layer, GC; type: physicochemical; conditions: Two Weeks at Room Temperature
Description: as §1

[5] = Adsorption of Nipastat paraben components from hydrogel by gel retaining layer, HPLC of gel extract; type: physicochemical; conditions: 9 Days at 4° C.; for % Loss of Nipastat ® biocide from Gel: Gel + GRL versus Gel Control; for HPLC peak intensity of paraben extracted from hydrogel, Average: average of 5; for HPLC peak intensity of paraben extracted from hydrogel: individual samples 1-5
Description: (§3) Nipastat®-containing hydrogels were formulated with the appropriate buffer salts under standard conditions, from which samples were taken for analysis. […] The hydrogels were cut using a ¾ inch punch to generate the sample disks to assay. Each disk was added to 5 mL of acetonitrile/water (30% ACN, v/v) and the Nipastat® biocide was extracted for 1 hour while shaking on an orbital shaker at 100 rpm. The extract was then filtered through a 0.2 μm membrane prior to HPLC separation and UV detection at 254 nm.
(§4) Reverse phase HPLC chromatography was performed using a Waters 3.9 mm×15 cm Nova-Pak C-18 column (Milford, Mass.) operating at a flow rate of between about 1.0 to 2.0 mL/min. at 35° C. The eluent was monitored by UV at 254 nm using a Shimadzu SPD-10AU UV-Visible spectrometer (Kyoto, Japan). Samples 10 μL in volume were injected into the column equilibrated in 30% ACN in water, and the following 20-minute gradient program was performed: • 1. Initial time of injection: 30% ACN/70% water at a flow rate of 1 mL/min • 2. Linear Gradient from 30% ACN to 80% ACN for 9.0 minutes (1 mL/min) • 3. Linear Gradient from 80% ACN to 100% ACN for 0.5 minutes (1 mL/min) • 4. 100% ACN for 4.5 minutes (1 mL/min) • 5. Linear Gradient from 100% ACN to 30% ACN for 0.5 minutes at a flow rate of 2 mL/min • 6.30% ACN for 5.5 minutes at a flow rate of 1 mL/min
(§5) The HPLC profiles of the extracts were compared with that of a standard solution of known concentration comprising the p-hydroxybenzoate derivatives. The peak intensities of the experimental samples are compared to those of the standards to determine relative amounts of each extracted paraben.
(§6) Collection assemblies incorporating Nipastat® biocide-comprising hydrogels were assayed for retention of the biocide within the hydrogel. Samples of the hydrogel prior to and after incorporation into the collection assembly, as well as the components of the collection assembly in contact with the hydrogel, were prepared as described in Example 1.

[6] = Adsorption of Nipastat paraben components from hydrogel by mask layer, HPLC of gel extract; type: physicochemical; conditions: 48 Hours at 4° C.; for % Loss of Nipastat ® biocide from Gel: Gel + Mask versus Gel Control; for HPLC peak intensity of paraben extracted from hydrogel, Average: average of 5; for HPLC peak intensity of paraben extracted from hydrogel: individual samples 1-5
Description: as §3, §4, §5, §6

Compound | % Loss of Nipastat ® biocide from Gel [5] [%] | HPLC peak intensity of paraben extracted from hydrogel, Average ([5]; Gel + GRL) | HPLC peak intensity of paraben extracted from hydrogel ([5]; Gel + GRL) | HPLC peak intensity of paraben extracted from hydrogel, Average ([5]; Gel Control) | HPLC peak intensity of paraben extracted from hydrogel ([5]; Gel Control) | % Loss of Nipastat ® biocide from Gel [6] [%] | HPLC peak intensity of paraben extracted from hydrogel, Average ([6]; Gel + Mask) | HPLC peak intensity of paraben extracted from hydrogel ([6]; Gel + Mask) | HPLC peak intensity of paraben extracted from hydrogel, Average ([6]; Gel Control) | HPLC peak intensity of paraben extracted from hydrogel ([6]; Gel Control) | further results
C=CCCCCCCCCC(=O)O [undecylenic acid, 10-undecenoic acid] | – | – | – | – | – | – | – | – | – | – | % Loss for Gel + GRL, Average ([1]; average): 28.1%; % Loss for Gel + GRL ([1]; individual hydrogel samples): 37.0% and 28.4% and 22.2% and 24.7%; % Loss for Gel Control, Average ([2]; average): 62.4%; % Loss for Gel Control ([2]; individual hydrogel samples): 64.9% and 68.1% and 75.2% and 76.2% and 37.2% and 52.8%; biocide activity within the hydrogel: microbial count (Aspergillus niger): effective at reducing the microbial count; effectiveness compared between the two biocides (Aspergillus niger): more effective than the Nipastat® biocide; biocide activity within the hydrogel: microbial count (Staphylococcus aureus): effective at reducing the microbial count; effectiveness compared between the two biocides (Staphylococcus aureus): more effective than the Nipastat® biocide; biocide activity within the hydrogel: microbial count (Pseudomonas aeruginosa): effective at reducing the microbial count; effectiveness compared between the two biocides (Pseudomonas aeruginosa): more effective than the Nipastat® biocide; biocide activity within the hydrogel: microbial count (Candida albicans): effective at reducing the microbial count; effectiveness compared between the two biocides (Candida albicans): equally effective; biocide activity within the hydrogel: microbial count (Eschericia coli): effective at reducing the microbial count; effectiveness compared between the two biocides (Eschericia coli): equally effective; formation of a permeation selective barrier impeding acetominophen and uric acid signal generation [3]: does not; % Loss for Gel + Mask Layer, Average ([4]; average): 73.1%; % Loss for Gel + Mask Layer ([4]; individual hydrogel samples): 73.3% and 68.5% and 78.2% and 72.5%
CCOC(=O)c1ccc(O)cc1 [Ethyl, p-hydroxybenzoic acid ethyl ester] | 34.2 | 40848 | 23429 and 43116 and 38410 and 46214 and 53073 | 62118 | 58534 and 68190 and 70588 and 56529 and 56747 | 99.9 | 57 | 0 (4×) and 285 | 63573 | 43754 and 52495 and 93771 and 58684 and 69162 | –
p-hydroxybenzoic acid butyl esters | – | – | – | – | – | 99.9 | 87 | 0 (4×) and 436 | – | 50220 | –
COC(=O)c1ccc(O)cc1 [Methyl, p-hydroxybenzoic acid methyl ester] | 17.0 | 231960 | 147682 and 239356 and 231307 and 251620 and 289836 | 279309 | 261836 and 315315 and 313086 and 256304 and 250006 | 96.1 | 10075 | 5445 and 11776 and 13807 and 11268 and 8081 | 257019 | 199735 and 233495 and 282756 and 265561 and 303549 | –
CCCOC(=O)c1ccc(O)cc1 [Propyl, p-hydroxybenzoic acid propyl ester] | 58.5 | 10873 | 4958 and 11465 and 9664 and 15618 | 26218 | 24034 and 30121 and 30407 and 24349 and 22180 | 99.8 | 50 | 0 (4×) and 252 | 24535 | 18744 and 22146 and 27621 and 25936 and 28226 | –
